In patent US20210186972A1, “FORMULATIONS AND METHODS FOR THE PREVENTION AND TREATMENT OF TUMOR METASTASIS AND TUMORIGENESIS” (THE UNITED STATES OF AMERICA, AS REPRESENTED BY THE …, priority 2018, published 2021):
Where two headings read alike, the source gives them in different places.

How the values were obtained:
[1] = tested on: PANC1 cells; test: Cell growth, PANC1; format: cell-based, human; conditions: 0.6 μM, after 24 hours of treatment
Description: FIG. 63 is a graph showing the drug response of PANC1 cells following metarrestin treatment. […] Mean cell viability values are plotted with standard error of the mean (SEM) from at least 2 independent experiments done in triplicate.

[2] = tested on: KPC mice; test: Veterinary histopathology and clinical chemistry, KPC mice; format: in vivo
[3] = tested on: C57B/L6; format: in vivo, mice
[4] = tested on: GFP-RPL29; test: Ribosome synthesis, inducible GFP-RPL29 cell line; format: cell-based; conditions: induced after exposure for 5 hours
Procedure: FIG. 24 is a panel showing that metarrestin interferes with ribosomal biogenesis. An inducible RPL29-GFP-expressing cell line synthesizes RPL29-GFP when treated with tetracyclin (2nd column). When cells were treated with 1 μM metarrestin before tetracycline induction, the newly synthesized proteins accumulated in the nucleoli and nuclei (right most panels) compared to the DMSO control treated cells (2nd from right panels). Scale bars=5 μm.
To examine whether the disruption of the nucleolar structure impacts ribosome synthesis, a cell line expressing inducible GFP-RPL29 (a ribosomal subunit) was used.

[5] = tested on: RPA194 and UBF occupancy on rDNA; test: Quantitative ChIP on rDNA; format: cell-based; conditions: HeLa cells
Procedure: ChIP-qPCR: 2-5×10^7 cells were used for each ChIP assay according to previously described protocols. Briefly, HeLa cells with or without metarrestin treatment were crosslinked with 1% formaldehyde for 10 min at room temperature with rotation, and then crosslinking was quenched by the addition of glycine. Fixed chromatin was sonicated by Covaris and used for immunoprecipitation with the indicated antibody. Isolated DNA was analyzed by qPCR using SYBR green on CFX Connect Real-Time PCR Detection System (BioRad). The comparative cycle threshold method was applied to evaluate occupancy from replicate PCR reactions relative to the level of input. […]
Psoralen crosslinks active accessible DNA under UV light without displacing nucleosomes or transcription factors, or changing chromatin states. […] To examine the interactions between Pol I transcription factors and rDNA, quantitative ChIP experiments were carried out using primer sets across promoter and coding regions of rDNA (FIG. 29-30E).

[6] = tested on: eEF1A; test: Western blot of total eEF1A; format: cell-based; conditions: 1 μM, 24 hours
[7] = female, KPC, mouse, in vivo, 3 months
[8] = male, KPC, mouse, in vivo, 3 months
[9] = female, C57B/L6, mouse, in vivo
[10] = female, C57B/L6, mouse, in vivo, 3 months
[11] = male, C57B/L6, mouse, in vivo, 3 months

N=c1c2c(-c3ccccc3)c(-c3ccccc3)n(Cc3ccccc3)c2ncn1[C@H]1CC[C@H](O)CC1 [metarrestin]
PANC1 cell growth [1]: did not affect PC3M or PANC1 cell growth
Ileum segmented filamentous bacteria ([2]; KPC-Metarrestin Female F01): 3/3
Ileum segmented filamentous bacteria ([2]; KPC-Metarrestin Male M01): 4/4
Adrenal hyperplasia, subcapsular cell [2, 7]: 2/3
Duodenum dilatation [2, 7]: 3/3
Femur marrow hyperplasia, granulocytic [2, 7]: 1/3
Gall Bladder hyperplasia, papillary [2, 7]: 3/3
Kidney hydronephrosis [2, 7]: 1/3
Kidney mineralization [2, 7]: 1/3
Liver deformity [2, 7]: 1/3
Liver inflammation, subacute [2, 7]: 3/3
Lung lymphocytic infiltrate [2, 7]: 3/3
Pancreas duct, dilation [2, 7]: 3/3
Pancreas neoplasm, graded [2, 7]: 3/3
Salivary Gland lymphocytic infiltrate [2, 7]: 2/3
Spleen extramedullary hematopoiesis, erythrocytic, increased erythropoiesis [2, 7]: 1/3
Spleen fibrosis [2, 7]: 1/3
Spleen melanin [2, 7]: 1/3
Stomach, glandular, hyperplasia, foveolar cells [2, 7]: 3/3
Thyroid ectopic thymus [2, 7]: 1/3
Vertebra hyperplasia, granulocytic, marrow [2, 7]: 1/3
Adrenal lipogenic pigment [2, 8]: 3/4
Cecum proliferative typhlitis [2, 8]: 1/4
Duodenum dilatation [2, 8]: 1/4
Duodenum hyperplasia, crypt [2, 8]: 1/4
Femur marrow hyperplasia, granulocytic [2, 8]: 4/4
Gall Bladder hyperplasia, papillary [2, 8]: 4/4
Heart dilation, atrium [2, 8]: 1/4
Heart mineralization [2, 8]: 1/4
Kidney mineralization [2, 8]: 1/4
Kidney vacuolation. proximal tubule [2, 8]: 1/4
LN, mandibular hyperplasia, lymphoid [2, 8]: 1/4
LN, mandibular plasmacytosis [2, 8]: 1/4
Liver inflammation, subacute [2, 8]: 2/4
Liver lymphocytic infiltrate [2, 8]: 2/4
Lung lymphocytic infiltrate [2, 8]: 3/4
Pancreas duct, dilation [2, 8]: 4/4
Pancreas neoplasm, graded [2, 8]: 4/4
Skin/Subcutis inflammation, chronic active [2, 8]: 1/4
Spleen extramedullary hematopoiesis, erythrocytic, increased erythropoiesis [2, 8]: 1/4
Spleen fibrosis [2, 8]: 2/4
Stomach, glandular, hyperplasia, foveolar cells [2, 8]: 2/4
Stomach, nonglandular, erosion [2, 8]: 1/4
Thyroid hyperplasia, papillary [2, 8]: 1/4
Vertebra hyperplasia, granulocytic, marrow [2, 8]: 4/4
Histopathological or laboratory abnormalities ([2]; mouse, in vivo, 10 mg/kg): failed to discern any histopathological or laboratory abnormalities
Histopathological or laboratory abnormalities ([2]; mouse, in vivo, po, 25 mg/kg): failed to discern any histopathological or laboratory abnormalities
Kidney regeneration, tubule ([3]; C57B/L6 Metarrestin Female F03): 1/4
Brain hemorrhage ([3]; C57B/L6 Metarrestin Male M03): 1/4
Epididymis aspermia ([3]; C57B/L6 Metarrestin Male M03): 1/4
Kidney regeneration, tubule ([3]; C57B/L6 Metarrestin Male M03): 3/4
Gall Bladder inflammation, acute [3, 9]: 3/4
Ileum segmented filamentous bacteria [3, 9]: 3/4
Adrenal hyperplasia, subcapsular cell [3, 10]: 3/4
Kidney dilatation, tubule [3, 10]: 3/4
Kidney infarct [3, 10]: 1/4
Kidney mineralization [3, 10]: 2/4
Liver inflammation, subacute [3, 10]: 4/4
Lung lymphocytic infiltrate [3, 10]: 4/4
Spleen extramedullary hematopoiesis, erythrocytic, increased erythropoiesis [3, 10]: 2/4
Cecum proliferative typhlitis ([3]; male, C57B/L6, mouse, in vivo): 1/4
Femur marrow hyperplasia, granulocytic ([3]; male, C57B/L6, mouse, in vivo): 1/4
Gall Bladder inflammation, acute ([3]; male, C57B/L6, mouse, in vivo): 3/4
Heart mineralization ([3]; male, C57B/L6, mouse, in vivo): 1/4
Adrenal lipogenic pigment [3, 11]: 4/4
Ileum segmented filamentous bacteria [3, 11]: 3/4
Kidney dilatation, tubule [3, 11]: 2/4
Kidney mineralization [3, 11]: 2/4
Kidney vacuolation. proximal tubule [3, 11]: 1/4
Liver inflammation, subacute [3, 11]: 3/4
Lung lymphocytic infiltrate [3, 11]: 3/4
Spleen melanin [3, 11]: 1/4
Testis degeneration, seminiferous tubule [3, 11]: 1/4
Thymus cyst [3, 11]: 1/4
Vertebra hyperplasia, granulocytic, marrow [3, 11]: 1/4
Newly synthesized GFP-RPL29 in the cytoplasm [4]: largely undetected in the cytoplasm
Production of GFP-RPL29 and its nucleolar localization [4]: appeared unchanged
UBF binding to rDNA [5]: without significant impact on UBF binding
RPA194 occupancy on rDNA promoter and coding regions ([5]; p<0.01): significantly reduced RPA194 occupancy
Total eEF1A protein [6]: remained similar
